From PubChem BioAssay (NCI)
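These data come from cells grown in 96-well plates and exposed to compound for 48 hours at five concentrations. GI50 is the concentration that inhibits growth by half. The concentration for full growth arrest is given as TGI.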

Tests used:
Experiment in all cases: NCI tumour cell line growth inhibition, 48 h
[1] = test system: CCRF-CEM leukemia
[2] = test system: NCI-H460 lung
[3] = test system: OVCAR-3 ovarian
[4] = test system: SF-539 CNS
[5] = test system: SK-MEL-2 melanoma
[6] = test system: SK-MEL-5 melanoma
[7] = test system: SN12C renal
[8] = test system: U251 CNS
[9] = test system: UO-31 renal
[10] = test system: HL-60(TB) leukemia

`CSC(=S)NCc1cn(C)c2ccccc12` was tested, and the GI50 [1] was 24.4 µM, the TGI [1] was over 100 µM and the GI50 [2] was 29.4 µM. For the same molecule, the TGI [2] was over 100 µM, the GI50 [3] was 23.4 µM and the TGI [3] was 80.4 µM. For the same molecule, the GI50 [4] was 25 µM, the TGI [4] was 62.3 µM and the GI50 [5] was 34.2 µM. It also gave a TGI [5] of over 100 µM, a GI50 [6] of 13.9 µM and a TGI [6] of 32.8 µM. The GI50 [7] was 26.9 µM, the TGI [7] was 80.8 µM and the GI50 [8] was 28.6 µM. For the same molecule, the TGI [8] was over 100 µM, the GI50 [9] was 22.3 µM and the TGI [9] was over 100 µM.
`Cn1cnnc1Sc1c([N+](=O)[O-])nc(-c2ccc([N+](=O)[O-])cc2)n1C` showed a TGI [1] of 33.7 µM, a TGI [2] of over 100 µM and a TGI [3] of 30.8 µM. The TGI [4] was 33.2 µM, the TGI [5] was 29.8 µM and the TGI [6] was 30.8 µM. For the same molecule, the TGI [7] was 29.6 µM, the TGI [8] was 30.2 µM and the TGI [9] was 28 µM.
Work on `C=C(CN1CCc2ccccc2C1)c1ccc(CCCC(=O)Nc2ccccc2N)cc1` yielded a GI50 [1] of 3.06 µM, a TGI [1] of over 100 µM and a GI50 [10] of 7.13 µM. The TGI [10] was 31.3 µM, the GI50 [2] was over 100 µM and the TGI [2] was over 100 µM. The GI50 [3] was 9.81 µM, the TGI [3] was 22.2 µM and the GI50 [4] was 11.4 µM. The TGI [4] was 24 µM, the GI50 [5] was 14.5 µM and the TGI [5] was 31.8 µM. The GI50 [6] was 5.01 µM, the TGI [6] was 17.3 µM and the GI50 [7] was 13 µM. It also gave a TGI [7] of 28.4 µM, a GI50 [8] of 18.4 µM and a TGI [8] of 44.5 µM. The GI50 [9] was 2.7 µM and the TGI [9] was 17.7 µM.
With `COc1cc(C=NCC(=O)CSC(c2ccccc2)c2ccccc2)ccc1O` the GI50 [1] was 8.42 µM, the TGI [1] was 50.9 µM and the GI50 [10] was 11.4 µM. For the same molecule, the TGI [10] was 27.6 µM, the GI50 [2] was 20.1 µM and the TGI [2] was 56.2 µM. For the same molecule, the GI50 [3] was 11.3 µM, the TGI [3] was 24.9 µM and the GI50 [4] was 14.8 µM. It also gave a TGI [4] of 29.1 µM, a GI50 [5] of 14.9 µM and a TGI [5] of 28.7 µM. The GI50 [6] was 4.83 µM, the TGI [6] was 18.2 µM and the GI50 [7] was 14.1 µM. It also gave a TGI [7] of 28.1 µM, a GI50 [8] of 14 µM and a TGI [8] of 26.9 µM. For the same molecule, the GI50 [9] was 12.7 µM and the TGI [9] was 29.1 µM.
In the case of `CCCCn1c(-c2ccccc2)cs/c1=N\NC(=O)Cn1c(C)nc2ccccc21`, the TGI [1] was 99.4 µM, the TGI [10] was 56.2 µM and the TGI [2] was over 100 µM. The TGI [3] was over 100 µM, the TGI [4] was over 100 µM and the TGI [5] was over 100 µM. The TGI [6] was over 100 µM, the TGI [7] was over 100 µM and the TGI [8] was over 100 µM. For the same molecule, the TGI [9] was over 100 µM.
`O=C(O)C12C=CC(C1)c1ccccc12` (centres undefined) was tested, and the TGI [1] was over 100 µM, the TGI [10] was over 100 µM and the TGI [2] was over 100 µM. It also gave a TGI [3] of over 100 µM, a TGI [6] of over 100 µM and a TGI [7] of over 100 µM. The TGI [8] was over 100 µM and the TGI [9] was over 100 µM.
`O=C(O)C(Cc1ccccc1)N1C(=O)/C(=C/C(Cl)=C/c2ccc([N+](=O)[O-])cc2)SC1=S` (centres undefined) showed a GI50 [1] of 2.92 µM, a TGI [1] of over 100 µM and a GI50 [3] of 1.76 µM. It also gave a TGI [3] of 3.51 µM, a GI50 [5] of 1.87 µM and a TGI [5] of 4.5 µM. The GI50 [6] was 1.68 µM, the TGI [6] was 3.06 µM and the GI50 [8] was 1.72 µM. For the same molecule, the TGI [8] was 3.52 µM, the GI50 [9] was 1.59 µM and the TGI [9] was 3.1 µM.
Molecule `O=C1c2ccccc2-c2c1c1ccccc1c(=O)n2CCNCCNCCNCCNCCn1c2c(c3ccccc3c1=O)C(=O)c1ccccc1-2` has a GI50 [1] of 0.125 µM, a TGI [1] of 2.65 µM and a GI50 [10] of 0.216 µM. The TGI [10] was 2.08 µM, the GI50 [2] was 0.0669 µM and the TGI [2] was 1.99 µM. The GI50 [3] was 1.45 µM, the TGI [3] was 4.96 µM and the GI50 [4] was 0.0446 µM. For the same molecule, the TGI [4] was 0.314 µM, the GI50 [5] was 0.692 µM and the TGI [5] was 2.4 µM. For the same molecule, the GI50 [6] was 0.323 µM, the TGI [6] was 1.47 µM and the GI50 [8] was over 100 µM. For the same molecule, the TGI [8] was over 100 µM, the GI50 [9] was 0.661 µM and the TGI [9] was 2.09 µM.
In the case of `CNC(=O)NCCCCC(NC(C)=O)C(=O)NCc1ccccc1` (centres undefined), the TGI [1] was over 100 µM, the TGI [2] was over 100 µM and the TGI [3] was over 100 µM. The TGI [4] was over 100 µM, the TGI [5] was over 100 µM and the TGI [6] was over 100 µM. The TGI [7] was over 100 µM, the TGI [8] was over 100 µM and the TGI [9] was over 100 µM.
`CCNc1ccc2c(c1)C(=O)N(OS(C)(=O)=O)C2=O` showed a TGI [1] of over 100 µM, a TGI [2] of over 100 µM and a TGI [3] of over 100 µM. For the same molecule, the TGI [4] was 51.5 µM, the TGI [5] was over 100 µM and the TGI [6] was over 100 µM. For the same molecule, the TGI [7] was over 100 µM, the TGI [8] was over 100 µM and the TGI [9] was over 100 µM.
In the case of `O=C(O)CCN1C(=S)CSC1=S`, the TGI [1] was over 100 µM, the TGI [2] was over 100 µM and the TGI [3] was over 100 µM. For the same molecule, the TGI [4] was over 100 µM, the TGI [5] was over 100 µM and the TGI [6] was over 100 µM. For the same molecule, the TGI [7] was over 100 µM and the TGI [8] was over 100 µM.
Work on `CCOC(=O)c1sc(NC(=O)COc2ccc(/C=C3\CCc4cc(OC)ccc4C3=O)cc2)nc1C` yielded a GI50 [10] of 0.294 µM, a TGI [10] of 0.949 µM and a GI50 [2] of 14.3 µM. It also gave a TGI [2] of 28.7 µM, a GI50 [3] of 11 µM and a TGI [3] of 25.8 µM. For the same molecule, the GI50 [4] was 11.7 µM, the TGI [4] was 23.9 µM and the GI50 [5] was 5.61 µM. It also gave a TGI [5] of 21.6 µM, a GI50 [6] of 12.4 µM and a TGI [6] of 24.8 µM. For the same molecule, the GI50 [7] was 4.66 µM, the TGI [7] was 21 µM and the GI50 [8] was 8.75 µM. For the same molecule, the TGI [8] was 21.8 µM, the GI50 [9] was 1.78 µM and the TGI [9] was 9.64 µM.
`COc1cc(C2CC(c3ccc(Cl)cc3)=NN2C(C)=O)ccc1Oc1ccnc2cc(Cl)ccc12` (centres undefined) showed a GI50 [1] of over 100 µM, a TGI [1] of over 100 µM and a GI50 [10] of over 100 µM. For the same molecule, the TGI [10] was over 100 µM, the GI50 [5] was 15.9 µM and the TGI [5] was 82.8 µM. For the same molecule, the GI50 [6] was over 100 µM, the TGI [6] was over 100 µM and the GI50 [7] was over 100 µM. For the same molecule, the TGI [7] was over 100 µM, the GI50 [8] was 3.09 µM and the TGI [8] was over 100 µM.
With `C=C(c1ccccc1)c1cc2c(=O)[nH]ccc2n1C` the TGI [1] was over 100 µM, the TGI [10] was 38.1 µM and the TGI [2] was over 100 µM. The TGI [3] was over 100 µM, the TGI [5] was 58.3 µM and the TGI [6] was 71.1 µM. The TGI [7] was over 100 µM and the TGI [9] was 66.1 µM.
`O=C(CC1(O)CCCCC1)OC1CCCC1` gave a TGI [2] of over 100 µM, a TGI [3] of over 100 µM and a TGI [4] of over 100 µM. It also gave a TGI [5] of over 100 µM, a TGI [6] of over 100 µM and a TGI [7] of over 100 µM. It also gave a TGI [8] of over 100 µM and a TGI [9] of over 100 µM.
`COc1ccc(C(=O)Cn2c(C(=O)c3ccc(Cl)cc3)nc(-c3ccccc3)c2-c2ccccc2)cc1` showed a GI50 [10] of over 100 µM, a TGI [10] of over 100 µM and a GI50 [2] of over 100 µM. It also gave a TGI [2] of over 100 µM, a GI50 [3] of over 100 µM and a TGI [3] of over 100 µM. For the same molecule, the GI50 [4] was 52.3 µM, the TGI [4] was over 100 µM and the GI50 [5] was over 100 µM. For the same molecule, the TGI [5] was over 100 µM, the GI50 [6] was over 100 µM and the TGI [6] was over 100 µM. It also gave a GI50 [7] of over 100 µM, a TGI [7] of over 100 µM and a GI50 [8] of 73 µM. It also gave a TGI [8] of over 100 µM, a GI50 [9] of over 100 µM and a TGI [9] of over 100 µM.
Molecule `COc1c2c(c(O)c3c4c(c(C)cc13)C1OC3(C(OC)OC5CC(C)(O)C(OC6CC(C)(O)C(O)C(C)O6)C(C)O5)OC1C(OC)(O4)C31CO1)C(=O)C(O)CC2OC1CC(C)(O)C(OC(C)=O)C(C)O1` (centres undefined) has a TGI [10] of under 0.01 µM, a TGI [2] of 0.15 µM and a TGI [3] of under 0.01 µM. It also gave a TGI [4] of under 0.01 µM, a TGI [5] of under 0.01 µM and a TGI [6] of under 0.01 µM. For the same molecule, the TGI [7] was 0.113 µM, the TGI [8] was under 0.0108 µM and the TGI [9] was 0.154 µM.
